Measurements reported in patent US20240216401A1, “COMBINATION THERAPY BY USING AKR1C3-ACTIVATED COMPOUND WITH IMMUNE CHECKPOINT INHIBITOR” (OBI Pharma, Inc., priority 2021, published 2024).
Several values for one entry are separate records, joined by “and”; a condition that tells them apart may be missing. Equal entries are not always repeated.

Key:
HepG2 tumor = experiment: Example 2: tumor volume, tumor weight and TGI in HepG2 tumor bearing humanized mice; type: in vivo, Mus musculus
Experimental: 1. Species: Mus musculus • Strain: Advanced immunodeficiency mouse. • (NOD.CgPrkdc^scid Il2rg) • Source: Trineo Biotechnology Co., LTD.
Each group contains six mice. The human hepatocellular carcinoma cell line HepG2 were subcutaneously inoculated to the advanced immune-deficiency mice. Total of 42 mice were included in this study.
2.2. […] The subcutaneous injection volume was […].
3.1. […] The injection was performed using insulin syringe with the dosage of 0.3 mg/kg or 1 mg/kg and the injection volume was 5 mL/kg. […] The reference item was administered for G1. The procedure followed the standards of sample administration. The starting day of test item administration was denoted as the first experimental day (DO).
3.2. […] The injection was performed using insulin syringe with the dosage of 20 mg/kg and injection volume of 10 mL/kg. […] The procedure followed the standards of sample administration.
The measurement was performed from the next day of the inoculation. The tumor volumes were measured and recorded twice a week (Mon., Thur.). Tumor volume was calculated by ellipsoid equation according to the records ((major axis×minor axis×minor axis)×(π/6)).
Tumor volumes were used to calculate tumor growth inhibition (TGI) rates according to the following formula: TGI (%)=[1−(Ti−T0)/(Ci−C0)]×100, where Ti and Ci indicate the mean tumor volume in the treatment groups and vehicle group at the end of the experiment (Day 30). Whereas, T0 and C0 indicate the mean tumor volumes in the treatment group and vehicle group at the beginning of the experiment (Day 0).
(§1) Mice were sacrificed by CO2 euthanasia at the end of the study duration, and the connective tissue around tumor was resected. The tumor samples were then weighed and cut equally into three sections if the tumor weight over 400 mg. The tumor tissue was prepared for the isolation of tumor-infiltrating lymphocytes (TILs). The rest of one section was fixed in 10% formaldehyde and embedded in paraffin; the other was stored at a temperature below −70° C.

[1] = test system: Dendritic cells in tumor-infiltrating lymphocytes; experiment: Example 2: flow cytometry, percentage of Dendritic cells in TILs; type: in vivo, Mus musculus; details: individual animals and Mean
Experimental: as §1
The tumor samples were dissected into smaller fragments using scalpels and then digested with a cocktail of collagenase, DNase I, and Hyaluronidase (Collagenase #C5138, DNase I #D5025, Hyaluronidase #H6254, SigmaAldrich) for at least 2 hours.
Cells were stained with the fluorescently conjugated surface antibodies and incubated for 30 minutes at 4° C., and then resuspended in staining buffer for flow cytometric analysis. Flow cytometry was done using a Navios EX Flow Cytometer (Beckman Coulter). Data were analyzed using the Kaluza Analysis Software (Beckman Coulter).

[2] = G2 OBI-3424 (0.3 mg/kg), D30, group Mean
[3] = G2 OBI-3424 (0.3 mg/kg), D30, individual animals, 0.3 mg/kg
[4] = G3 OBI-3424 (1 mg/kg), D30, individual animals, 1 mg/kg
[5] = G2: OBI-3424 (0.3 mg/kg), 0.3 mg/kg
[6] = G2: OBI-3424 (0.3 mg/kg), 0.3 mg/kg, mean
[7] = G3: OBI-3424 (1 mg/kg), 1 mg/kg
[8] = G3: OBI-3424 (1 mg/kg), 1 mg/kg, mean

C[C@H](OP(=O)(N1CC1)N1CC1)c1ccc([N+](=O)[O-])c(Oc2cccc(C(=O)N(C)C)c2)c1 [OBI-3424, (S)-1-(3-(3-N,N-dimethylaminocarbonyl)phenoxyl-4-mtrophenyl)-1-ethyl-N,N′-bis(ethylene)phosphoramidate]
Tumor volume (HepG2 tumor; G2 OBI-3424 (0.3 mg/kg), D23, group Mean): 744.1 mm^3
Tumor volume (HepG2 tumor; G2 OBI-3424 (0.3 mg/kg), D23, individual animals, 0.3 mg/kg): 889.2 mm^3 and 661.3 mm^3 and 890.1 mm^3 and 297.5 mm^3 and 842.6 mm^3 and 884.2 mm^3
Tumor volume (HepG2 tumor; G2 OBI-3424 (0.3 mg/kg), D27, group Mean): 717.3 mm^3
Tumor volume (HepG2 tumor; G2 OBI-3424 (0.3 mg/kg), D27, individual animals, 0.3 mg/kg): 926.9 mm^3 and 527.6 mm^3 and 909.1 mm^3 and 205.1 mm^3 and 848.5 mm^3 and 886.5 mm^3
Tumor volume (HepG2 tumor; [2]): 716.4 mm^3
Tumor weight (HepG2 tumor; [2]): 304.45 mg
Tumor volume (HepG2 tumor; [3]): 1012. mm^3 and 468.2 mm^3 and 882.8 mm^3 and 181.5 mm^3 and 850.4 mm^3 and 903.5 mm^3
Tumor weight (HepG2 tumor; [3]): 445.50 mg and 223.90 mg and 327.90 mg and 63.40 mg and 449.00 mg and 317.00 mg
TGI (HepG2 tumor; G3 OBI-3424 (1 mg/kg)): 113.27%
Tumor volume (HepG2 tumor; G3 OBI-3424 (1 mg/kg), D0, individual animals, 1 mg/kg): 290.8 mm^3 and 318.0 mm^3 and 286.8 mm^3
Tumor volume (HepG2 tumor; G3 OBI-3424 (1 mg/kg), D2, individual animals, 1 mg/kg): 295.5 mm^3 and 322.4 mm^3 and 292.9 mm^3
Tumor volume (HepG2 tumor; G3 OBI-3424 (1 mg/kg), D6, individual animals, 1 mg/kg): 297.0 mm^3 and 328.4 mm^3 and 304.4 mm^3
Tumor volume (HepG2 tumor; G3 OBI-3424 (1 mg/kg), D9, individual animals, 1 mg/kg): 337.5 mm^3 and 468.5 mm^3 and 334.0 mm^3
Tumor volume (HepG2 tumor; G3 OBI-3424 (1 mg/kg), D13, individual animals, 1 mg/kg): 341.3 mm^3 and 492.3 mm^3 and 362.5 mm^3
Tumor volume (HepG2 tumor; G3 OBI-3424 (1 mg/kg), D16, individual animals, 1 mg/kg): 359.9 mm^3 and 556.8 mm^3 and 465.2 mm^3
Tumor volume (HepG2 tumor; G3 OBI-3424 (1 mg/kg), D20, individual animals, 1 mg/kg): 345.0 mm^3 and 552.1 mm^3 and 465.2 mm^3
Tumor volume (HepG2 tumor; G3 OBI-3424 (1 mg/kg), D23, individual animals, 1 mg/kg): 260.7 mm^3 and 544.3 mm^3 and 419.2 mm^3
Tumor volume (HepG2 tumor; G3 OBI-3424 (1 mg/kg), D27, individual animals, 1 mg/kg): 246.4 mm^3 and 426.0 mm^3 and 295.9 mm^3
Tumor weight (HepG2 tumor; G3 OBI-3424 (1 mg/kg), D30, group Mean): 84.40 mg
Tumor volume (HepG2 tumor; [4]): 185.2 mm^3 and 295.5 mm^3 and 215.0 mm^3
Tumor weight (HepG2 tumor; [4]): 62.40 mg and 101.90 mg and 105.20 mg and 90.30 mg and 69.80 mg and 76.80 mg
CD86^+ DC cells (CD45^+CD11c^+CD86^+) Cell count [1, 5]: 6.36 ×10^5 and 14.34 ×10^5 and 27.59 ×10^5 and 1.25 ×10^5 and 15.63 ×10^5 and 4.71 ×10^5
CD86^+ DC cells (CD45^+CD11c^+CD86^+) Total % [1, 5]: 3.27% and 7.01% and 5.11% and 5.82% and 6.34% and 6.50%
CD91^+ DC cells (CD45^+CD11c^+CD91^+) Cell count [1, 5]: 0.18 ×10^5 and 0.16 ×10^5 and 0.54 ×10^5 and 0.02 ×10^5 and 0.22 ×10^5 and 0.04 ×10^5
CD91^+ DC cells (CD45^+CD11c^+CD91^+) Total % [1, 5]: 0.09% (2×) and 0.08% (2×) and 0.10% and 0.06%
DC cells (CD45^+CD11c^+) CD45+ Gated % [1, 5]: 32.90% and 30.81% and 44.83% and 19.60% and 24.30% and 36.70%
DC cells (CD45^+CD11c^+) Cell count [1, 5]: 10.62 ×10^5 and 23.35 ×10^5 and 105.79 ×10^5 and 2.74 ×10^5 and 25.44 ×10^5 and 9.18 ×10^5
DC cells (CD45^+CD11c^+) Total % [1, 5]: 5.46% and 11.42% and 19.59% and 12.80% and 10.32% and 12.66%
CD86^+ DC cells (CD45^+CD11c^+CD86^+) Cell count [1, 6]: 11.65 ×10^5
CD86^+ DC cells (CD45^+CD11c^+CD86^+) Total % [1, 6]: 5.68%
CD91^+ DC cells (CD45^+CD11c^+CD91^+) Cell count [1, 6]: 0.19 ×10^5
CD91^+ DC cells (CD45^+CD11c^+CD91^+) Total % [1, 6]: 0.08%
DC cells (CD45^+CD11c^+) CD45+ Gated % [1, 6]: 31.52%
DC cells (CD45^+CD11c^+) Cell count [1, 6]: 29.52 ×10^5
DC cells (CD45^+CD11c^+) Total % [1, 6]: 12.04%
CD86^+ DC cells (CD45^+CD11c^+CD86^+) Cell count [1, 7]: 2.23 ×10^5 and 10.59 ×10^5 and 5.46 ×10^5 and 6.73 ×10^5 and 6.98 ×10^5 and 7.11 ×10^5
CD86^+ DC cells (CD45^+CD11c^+CD86^+) Total % [1, 7]: 7.68% and 8.39% and 7.73% and 6.81% and 9.38% and 8.78%
CD91^+ DC cells (CD45^+CD11c^+CD91^+) Cell count [1, 7]: 0.04 ×10^5 (2×) and 0.10 ×10^5 and 0.06 ×10^5 (2×) and 0.08 ×10^5
CD91^+ DC cells (CD45^+CD11c^+CD91^+) Total % [1, 7]: 0.14% and 0.08% (2×) and 0.09% and 0.06% and 0.07%
DC cells (CD45^+CD11c^+) CD45+ Gated % [1, 7]: 23.54% and 31.09% and 41.01% and 19.89% and 35.18% and 28.58%
DC cells (CD45^+CD11c^+) Cell count [1, 7]: 4.40 ×10^5 and 23.57 ×10^5 and 13.84 ×10^5 and 12.22 ×10^5 and 16.67 ×10^5 and 14.15 ×10^5
DC cells (CD45^+CD11c^+) Total % [1, 7]: 15.16% and 18.68% and 19.60% and 12.37% and 22.41% and 17.47%
CD86^+ DC cells (CD45^+CD11c^+CD86^+) Cell count [1, 8]: 6.52 ×10^5
CD86^+ DC cells (CD45^+CD11c^+CD86^+) Total % [1, 8]: 8.13%
CD91^+ DC cells (CD45^+CD11c^+CD91^+) Cell count [1, 8]: 0.06 ×10^5
CD91^+ DC cells (CD45^+CD11c^+CD91^+) Total % [1, 8]: 0.09%
DC cells (CD45^+CD11c^+) CD45+ Gated % [1, 8]: 29.88%
DC cells (CD45^+CD11c^+) Cell count [1, 8]: 14.14 ×10^5
DC cells (CD45^+CD11c^+) Total % [1, 8]: 17.62%
